Measured values taken from patent US20240209028A1, “CNP COMPOUNDS” (priority 2022, published 2024).
Starred links: 1 amine or outer side, 2 acyl side, 3 side chain; linkers in the order of their positions; H or OH if unused. Positions of bridges follow the written chain, without caps; N, C: chain ends. Residues, ends and D or L forms follow the SMILES beside them. *: point of attachment. C18 diacid = O=C(O)CCCCCCCCCCCCCCCCC(=O)*; γGlu = O=C(O)[C@H](CCC(=O)[*:2])N[*:1]; AEEA = NCCOCCOCC(=O)O

Biological target: T1, human natriuretic peptide receptor 2 (hNPR2) (Homo sapiens, UniProt P20594)
T1 construct: expressed in transfected cells; host or cells: HEK293 (ATCC CRL-1573), clone 35, co-transfected with pGloSensor-42F
T1 sequence (P20594 23-1047): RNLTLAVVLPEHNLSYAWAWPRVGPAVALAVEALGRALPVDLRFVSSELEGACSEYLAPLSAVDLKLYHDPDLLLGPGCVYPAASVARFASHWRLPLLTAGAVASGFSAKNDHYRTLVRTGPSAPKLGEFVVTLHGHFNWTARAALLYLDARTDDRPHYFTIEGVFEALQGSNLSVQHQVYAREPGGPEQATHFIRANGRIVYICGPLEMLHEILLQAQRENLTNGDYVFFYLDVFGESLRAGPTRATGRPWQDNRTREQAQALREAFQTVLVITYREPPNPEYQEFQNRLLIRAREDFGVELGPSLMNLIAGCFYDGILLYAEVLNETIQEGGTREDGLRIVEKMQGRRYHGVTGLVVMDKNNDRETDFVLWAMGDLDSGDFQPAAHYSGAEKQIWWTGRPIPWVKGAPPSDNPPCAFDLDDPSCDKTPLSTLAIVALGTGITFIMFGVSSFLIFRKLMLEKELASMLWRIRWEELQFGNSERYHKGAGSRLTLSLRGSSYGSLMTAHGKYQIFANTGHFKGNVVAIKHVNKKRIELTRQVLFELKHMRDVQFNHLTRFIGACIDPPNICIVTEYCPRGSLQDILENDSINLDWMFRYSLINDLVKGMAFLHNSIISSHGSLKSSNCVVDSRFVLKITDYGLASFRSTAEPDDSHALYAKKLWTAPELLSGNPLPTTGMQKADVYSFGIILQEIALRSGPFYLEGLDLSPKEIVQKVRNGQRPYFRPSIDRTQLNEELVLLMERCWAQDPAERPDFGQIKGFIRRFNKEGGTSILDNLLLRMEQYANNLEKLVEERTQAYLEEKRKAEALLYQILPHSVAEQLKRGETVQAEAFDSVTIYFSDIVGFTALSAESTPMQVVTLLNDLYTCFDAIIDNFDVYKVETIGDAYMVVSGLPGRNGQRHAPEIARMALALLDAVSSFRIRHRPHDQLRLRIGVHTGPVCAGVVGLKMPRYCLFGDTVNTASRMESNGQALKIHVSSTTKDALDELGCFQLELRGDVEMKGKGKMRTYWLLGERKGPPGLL
Experiment: In vitro hNPR2 activity assay (cGMP GloSensor reporter, HEK293)
Format: cell-based
Settings: for hNPR2 0% HSA. [EC50% rel CNP]: potency relative to CNP22 (0065); for EC50: 0% HSA, HEK293-hNPR2/GloSensor cells
Method: To evaluate the in vitro activity of CNP22 (0065; Chem. 1) and CNP compounds of the invention, they were tested for their ability to induce production of cyclic guanosine monophosphate (cGMP) in reporter cells expressing the human natriuretic peptide receptor 2 (hNPR2).
Cell culture: To produce the reporter cell line, HEK293 (ATCC® CRL-1573™) cells were stably transfected with the pGloSensor-42F reporter plasmid (GloSensor cGMP reporter—luciferase, Promega) and an expression plasmid encoding the hNPR2 receptor. A single cell clone was isolated for the reporter cell line. When reporter cells are exposed to an hNPR2 activating compound, hNPR2 cause production of cGMP. […] Active GloSensor luciferase is able to convert luciferin to oxyluciferin, a process that produces bioluminescence. Upon cell lysis and supply of luciferase substrate, luciferase activity can be quantified by detection of luminescence. Therefore, addition of an hNPR2 activating compound and subsequent addition of detection reagent to reporter cells causes generation of luminescence in a dose dependent manner. […] This measure, also referred to as in vitro potency, is reported for all compounds tested. In all the in vitro activity experiments, CNP22 was used as a positive in-plate control for hNPR2 activation. To reduce inter-assay variation, we also report the potency of each compound relative to the potency of the CNP22 control on each plate.
Procedure: HEK293-hNPR2/GloSensor clone 35 cells were continuously cultured in selection medium (DMEM containing 10% FCS, 1% P/S, 200 μg/mL G418 and 100 μg/mL hygromycin). To perform the assay, cells were detached with TrypLE Express (Gibco #12604013), put through a 70 μm cell strainer, counted and seeded in 30 μL/well assay medium (DMEM without phenol red and with 1% P/S) at 10,000 cells/well in white 384-well plates (Perkin Elmer #6007680) overnight. The following day, test compounds were serial diluted in dilution medium (DMEM without phenol red containing 1% OVA (Sigma #A5505 lot 04M7001V), 0.01% Tween20 (Roche #33766700) and 1% P/S) and 10 μL/well of diluted test compounds were subsequently added to the cells. For each compound, ten different concentrations in the range 0.25 μM-10 μM were tested. After 30 min of incubation at 37° C. and 5% CO2, 40 μL/well Bright-Glo detection reagent (Promega #E2650) was added. […] To determine the in vitro potency or EC50 of each test compound, a four parameter logistic regression was done on the raw data for each test compound using the Python package SciPy optimize. The average EC50 values are listed as “hNPR2 0% HSA. [EC50 (nM)]” in Table 2. A relative potency was calculated by the following expression: EC50 (CNP22 in-plate control)/EC50 (test compound)*100, shown as “hNPR2 0% HSA. [EC50% rel CNP]” in Table 2. A minimum of two replicates was measured for each test compound.

SMILES | hNPR2 0% HSA. [EC50% rel CNP] | EC50
CC[C@H](C)[C@@H]1NC(=O)[C@H](CCCNC(=N)N)NC(=O)[C@H](CC(=O)O)NC(=O)[C@H](CC(C)C)NC(=O)[C@@H]2CCCN2C(=O)[C@H](CC(C)C)NC(=O)CNC(=O)[C@H](Cc2ccccc2)NC(=O)[C@@H](NC(=O)CNC(=O)[C@H](CCCCN)NC(=O)[C@H](CO)NC(=O)[C@H](CC(C)C)NC(=O)CNC(=O)[C@H](CCCCN)NC(=O)[C@H](CCC(=O)O)NC(=O)[C@H](CCC(N)=O)NC(=O)[C@H](C)NC(=O)CNC(=O)[C@H](CCC(=O)O)NC(=O)[C@H](Cc2ccc(O)cc2)NC(=O)COCCOCCNC(=O)COCCOCCNC(=O)CC[C@H](NC(=O)CCCCCCCCCCCCCCCCC(=O)O)C(=O)O)CSSC[C@@H](C(=O)O)NC(=O)CNC(=O)[C@H](CC(C)C)NC(=O)CNC(=O)[C@H](CO)NC(=O)[C@H](CC(C)C)NC(=O)[C@H](CO)NC(=O)CNC1=O [compound 1226] ({C18 diacid-γGlu-AEEA-AEEA}-YEGAQEKGLSKGCFGLPLDRIGSLSGLGC-OH; disulfide 13-29) | 7.5% | –
CC[C@H](C)[C@@H]1NC(=O)[C@H](CCCNC(=N)N)NC(=O)[C@H](CC(=O)O)NC(=O)[C@H](CC(C)C)NC(=O)[C@@H]2CCCN2C(=O)[C@H](CC(C)C)NC(=O)CNC(=O)[C@H](Cc2ccccc2)NC(=O)[C@@H](NC(=O)CNC(=O)[C@H](CO)NC(=O)[C@H](CO)NC(=O)[C@H](CC(C)C)NC(=O)CNC(=O)[C@H](CCCCN)NC(=O)[C@H](CCC(=O)O)NC(=O)[C@H](CCC(N)=O)NC(=O)[C@H](C)NC(=O)CNC(=O)[C@H](CCC(=O)O)NC(=O)[C@H](Cc2ccc(O)cc2)NC(=O)COCCOCCNC(=O)COCCOCCNC(=O)CC[C@H](NC(=O)CCCCCCCCCCCCCCCCC(=O)O)C(=O)O)CSSC[C@@H](C(=O)O)NC(=O)CNC(=O)[C@H](CC(C)C)NC(=O)CNC(=O)[C@H](CO)NC(=O)[C@H](CC(C)C)NC(=O)[C@H](CO)NC(=O)CNC1=O [compound 1228] ({C18 diacid-γGlu-AEEA-AEEA}-YEGAQEKGLSSGCFGLPLDRIGSLSGLGC-OH; disulfide 13-29) | 12.3% | –
CC[C@H](C)[C@@H]1NC(=O)[C@H](CCCNC(=N)N)NC(=O)[C@H](CC(=O)O)NC(=O)[C@H](CC(C)C)NC(=O)[C@H](CCCCN)NC(=O)[C@H](CC(C)C)NC(=O)CNC(=O)[C@H](Cc2ccccc2)NC(=O)[C@@H](NC(=O)CNC(=O)[C@H](CCCCN)NC(=O)[C@H](CO)NC(=O)[C@H](CC(C)C)NC(=O)CNC(=O)[C@H](CCCCN)NC(=O)[C@H](CCC(=O)O)NC(=O)[C@H](CCC(N)=O)NC(=O)[C@H](C)NC(=O)CNC(=O)[C@H](CCCCN)NC(=O)[C@H](CCC(=O)O)NC(=O)COCCOCCNC(=O)COCCOCCNC(=O)CC[C@H](NC(=O)CCCCCCCCCCCCCCCCC(=O)O)C(=O)O)CSSC[C@@H](C(=O)O)NC(=O)CNC(=O)[C@H](CC(C)C)NC(=O)CNC(=O)[C@H](CO)NC(=O)[C@H](CC(C)C)NC(=O)[C@H](CO)NC(=O)CNC1=O [compound 1229] ({C18 diacid-γGlu-AEEA-AEEA}-EKGAQEKGLSKGCFGLKLDRIGSLSGLGC-OH; disulfide 13-29) | 5.3% | 4.44 nM
CC[C@H](C)[C@@H]1NC(=O)[C@H](CCCNC(=N)N)NC(=O)[C@H](CC(=O)O)NC(=O)[C@H](CC(C)C)NC(=O)[C@H](CCCCN)NC(=O)[C@H](CC(C)C)NC(=O)CNC(=O)[C@H](Cc2ccccc2)NC(=O)[C@@H](NC(=O)CNC(=O)[C@H](CO)NC(=O)[C@H](CO)NC(=O)[C@H](CC(C)C)NC(=O)CNC(=O)[C@H](CCCCN)NC(=O)[C@H](CCC(=O)O)NC(=O)[C@H](CCC(N)=O)NC(=O)[C@H](C)NC(=O)CNC(=O)[C@H](CCCCN)NC(=O)[C@H](CCC(=O)O)NC(=O)COCCOCCNC(=O)COCCOCCNC(=O)CC[C@H](NC(=O)CCCCCCCCCCCCCCCCC(=O)O)C(=O)O)CSSC[C@@H](C(=O)O)NC(=O)CNC(=O)[C@H](CC(C)C)NC(=O)CNC(=O)[C@H](CO)NC(=O)[C@H](CC(C)C)NC(=O)[C@H](CO)NC(=O)CNC1=O [compound 1230] ({C18 diacid-γGlu-AEEA-AEEA}-EKGAQEKGLSSGCFGLKLDRIGSLSGLGC-OH; disulfide 13-29) | 4.2% | 6.98 nM
